Earlier results, collected in patent US6646013B1, “Nutrient formulations for disease reduction” (Nutri-Logics, priority 1999, dated 2003).
Where two headings read alike, the source gives them in different places.

Tests used:
colon cancer = details: patients with chronic ulcerative colitis
[1] = not given; remark: listed apart in the source
[2] = not given; remark: listed apart in the source
mice = details: oral doses
rats = details: oral doses
[3] = animal fertility studies
[4] = normal parathyroid function and vitamin D sensitivity
[5] = not given; remark: listed apart in the source
colorectal cancer = details: meta-analysis of twenty-four studies, calcium intake
[6] = not given; remark: listed apart in the source
[7] = gastrointestinal side effects (distress, bloating)
prostate cancer = details: vitamin E intake [37]
vitamin K activity = details: vitamin K-deficient patients
colon carcinogenesis = details: rat colon model for carcinogenesis
[8] = not given; remark: listed apart in the source
[9] = circulation
[10] = saturable absorption

Nc1nc2ncc(CNc3ccc(C(=O)N[C@@H](CCC(=O)O)C(=O)O)cc3)nc2c(=O)[nH]1 [folic acid, N-[**4-[**[**(2-Amino-1,4-dihydro-4-oxo-6-pteridinyl)methyl]amino]benzoyl]-L-glutamic Acid]
lower incidence of colon cancer versus no supplementation (colon cancer): 62% | dose with no adverse human effects (duration not stated): 15 mg/day | dose with no adverse human effects (for 4 months): 10 mg/day

Cc1ncc(CO)c(CO)c1O [vitamin B6, pyridoxine]
dose at which symptoms of dependency were noted ([1]; adults): 200 mg daily | dose at which neurotoxicity may develop ([1]; prolonged ingestion): 200 mg per day

CC(=O)N[C@@H](CS)C(=O)O [NAC, N-Acetyl-l-cysteine]
plasma half-life of free NAC ([2]; estimated): about 2 hours | time to peak plasma NAC concentration ([2]; oral administration): less than one | bioavailability of the intact NAC molecule ([2]; oral, estimated): 4-10% | time post-administration at which virtually no NAC is detected ([2]; plasma): 10 to 12 h | LD50 (mice): 7888 mg/kg | LD50 (rats): greater than 6000 mg/kg | dose with no adverse effects reported [3]: up to 250 mg/kg | dose with no teratogenic effects observed [3]: ≤ 2000 mg/kg

C=C1CC[C@H](O)C/C1=C/C=C1\CCC[C@]2(C)[C@@H]([C@H](C)CCCC(C)C)CC[C@@H]12 [vitamin D, (3β,5Z,7E)-9,10-Secocholesta-5,7,10(19)-triene-3-ol]
continuous daily ingestion causing signs of hypervitaminosis [4]: ≥ 50,000 units daily

O=C(O)c1ccccc1O [Salicylate, salicylic acid]
time to peak plasma concentrations ([5]; oral): ≤ 2 h | time to significant plasma concentrations ([5]; oral): ≤ 30 min | excreted in the urine as acyl glucuronide ([5]; urine): 5% | excreted in the urine as free salicylic acid ([5]; urine): 10% | excreted in the urine as salicylic phenolic glucuronide ([5]; urine): 10% | excreted in the urine as salicyluric acid ([5]; urine): 75%

[Ca] [calcium]
summary relative risk of colorectal cancer (colorectal cancer): 0.89 (0.79-1.01) | fraction complexed to anionic buffers ([6]; human plasma): about 10% | fraction bound to plasma proteins ([6]; human plasma, primarily albumin): approximately 45% | fraction of filtered Ca2+ reabsorbed ([6]; kidney): approximately 98% | supplement dose above which generally not well tolerated [7]: exceeding 800 mg per day

Cc1c(C)c2c(c(C)c1O)CCC(C)(CCCC(C)CCCC(C)CCCC(C)C)O2 (stereo not shown) [vitamin E, 3,4-Dihydro-2,5,7,8-tetramethyl-2-(4,8,12-trimethyltridecyl)-2H-1-benzopyran-6-ol]
decrease in the incidence of prostate cancer (prostate cancer): 34% | prolonged daily intake after which bleeding is a concern (vitamin K activity): > 800 IU

COc1cc(/C=C/C(=O)CC(=O)/C=C/c2ccc(O)c(OC)c2)ccc1O [curcumin, (E,E)-1,7-Bis(4-hydroxy-3-methoxyphenyl)-1,6-heptadiene-3,5-dione]
efficacy of pure form (>98%) versus food-grade curcumin (colon carcinogenesis): equally effective

Cyanocobalamin [vitamin B12]
share of the body's stores in the liver [8]: ≤ 90%

Cc1ncc(COP(=O)(O)O)c(C=O)c1O [Pyridoxal phosphate, pyridoxal 5′ phosphate]
share of circulating vitamin B6 [9]: at least 60%

O=C1O[C@H]([C@@H](O)CO)C(O)=C1O [Ascorbate, ascorbic acid]
concentration at which absorption is half-maximal [10]: about 1 mM
